Results published in PMC12541620 (Acta Pharmaceutica Sinica. B, 2025).
Where two headings read alike, the source gives them in different places. Values belong to the compound of their own block, whether it stands above or below them.

Experiments:
[1] = test system: irinotecan-triggered gut toxicity (ITGT) in tumor-bearing mice; test: irinotecan-triggered gut toxicity in tumor-bearing mice; format: in vivo, C57BL/6J mice; conditions: C3 25 and 50 mg/kg; LPA 10 mg/kg
[2] = target: T1, hCES2A (Homo sapiens, UniProt O00748); test: dialysis assay; format: biochemical; conditions: 10 μmol/L, 33 min preincubation, dialysis 2 and 4 h
T1 sequence (O00748 27-559): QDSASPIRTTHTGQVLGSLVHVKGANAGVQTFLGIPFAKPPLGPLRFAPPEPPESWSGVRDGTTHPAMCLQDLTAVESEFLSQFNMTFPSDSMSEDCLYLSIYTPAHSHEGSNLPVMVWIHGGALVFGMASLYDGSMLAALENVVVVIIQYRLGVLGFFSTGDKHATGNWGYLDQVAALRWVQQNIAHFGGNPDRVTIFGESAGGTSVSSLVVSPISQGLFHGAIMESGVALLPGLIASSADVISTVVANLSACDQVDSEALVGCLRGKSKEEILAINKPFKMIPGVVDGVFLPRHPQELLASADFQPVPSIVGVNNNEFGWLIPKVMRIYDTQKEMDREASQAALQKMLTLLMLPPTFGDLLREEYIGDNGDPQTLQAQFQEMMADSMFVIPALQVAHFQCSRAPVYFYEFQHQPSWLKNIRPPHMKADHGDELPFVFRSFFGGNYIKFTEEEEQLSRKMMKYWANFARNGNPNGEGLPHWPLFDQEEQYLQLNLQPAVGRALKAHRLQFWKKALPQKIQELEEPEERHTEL

[3] = target: T1, hCES2A; test: hCES2A inhibition assay; format: biochemical; conditions: for Ratio: IC50 3 min / IC50 33 min
[4] = target: hAChE (Homo sapiens, UniProt P22303); test: hAChE inhibition assay; format: biochemical
Chain of hAChE (P22303 32-614): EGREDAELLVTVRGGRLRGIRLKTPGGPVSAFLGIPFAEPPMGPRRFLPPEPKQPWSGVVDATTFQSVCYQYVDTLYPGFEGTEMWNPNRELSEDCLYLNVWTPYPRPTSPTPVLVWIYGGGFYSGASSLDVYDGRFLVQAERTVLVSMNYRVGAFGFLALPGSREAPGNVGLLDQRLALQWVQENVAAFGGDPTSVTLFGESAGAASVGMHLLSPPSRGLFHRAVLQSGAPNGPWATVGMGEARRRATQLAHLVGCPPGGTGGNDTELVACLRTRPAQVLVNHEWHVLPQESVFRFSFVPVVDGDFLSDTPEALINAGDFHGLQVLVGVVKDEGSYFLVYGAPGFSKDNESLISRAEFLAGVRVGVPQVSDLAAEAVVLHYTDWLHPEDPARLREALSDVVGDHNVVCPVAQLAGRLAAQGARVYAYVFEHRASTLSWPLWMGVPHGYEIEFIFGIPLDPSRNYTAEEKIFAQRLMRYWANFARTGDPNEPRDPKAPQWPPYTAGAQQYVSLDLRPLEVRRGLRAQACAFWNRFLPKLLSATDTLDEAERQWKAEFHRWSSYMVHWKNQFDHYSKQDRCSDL

[5] = IC50 (nmol/L) 3 min, 3 min pre-incubation, FD substrate
[6] = IC50 (nmol/L) 33 min, 33 min pre-incubation, FD substrate

SMILES: CN(C)C(=O)C(CCN1CCC(O)(c2ccc(Cl)cc2)CC1)(c1ccccc1)c1ccccc1 [LPA, loperamide]
elevated colon IL-6, IL-1β and TNF-α levels [1]: reversed
hCES2A activity after dialysis [2]: gradually recovering trend over time

SMILES: COc1cc2c(cc1OC)C(=O)/C(=C/c1cccc(OC)c1O)C2 [Compound B21]
IC50 [3]: 400 nM

SMILES: COc1cc2c(cc1OC)C(=O)/C(=C/c1ccccc1O)C2 [Compound B7]
anti-hAChE activity [4]: very weak anti-hAChE activity
enhancement of anti-hCES2A effect relative to A3 [3]: 8.36 folds
Ratio [3]: 0.33
IC50 [3, 5]: 106 ± 15.5 nM
IC50 [3, 6]: 325 ± 59.5 nM
IC50 ([3]; IC50 against hCES2A, FD substrate, 3 min preincubation): 110 nM

SMILES: COc1cc2c(cc1OC)C(=O)C(CC1CCN(Cc3ccccc3)CC1)C2 (centres unmarked) [Donepezil, reference compound]
IC50 [3]: 3910 nM

SMILES: COc1cc2c(cc1OC)C(=O)/C(=C/c1ccccc1OC(=O)N1CCC(N3CCCCC3)CC1)C2 [Compound C8]
Ratio [3]: 3.25
IC50 [3, 5]: 732 ± 71.7 nM
IC50 [3, 6]: 225 ± 13.4 nM

SMILES: COc1cc2c(cc1OC)C(=O)/C(=C/c1c(O)cccc1Br)C2 [Compound B20]
IC50 [3]: 290 nM

SMILES: COc1cc2c(cc1OC)C(=O)/C(=C/c1ccccc1OC(=O)N1CCN(C)CC1)C2 [Compound C7]
Ratio [3]: 7.32
IC50 [3, 5]: 258 ± 37.8 nM
IC50 [3, 6]: 35.3 ± 3.67 nM

SMILES: COc1cccc(/C=C2\Cc3cc(OC)c(OC)cc3C2=O)c1 [Compound B5]
IC50 [3]: 64800 nM

The remaining lines, values ahead:

IC50 [3]: 17900 nM
SMILES: COc1ccc(/C=C2\Cc3cc(OC)c(OC)cc3C2=O)cc1 [Compound B6]

IC50 [3]: 2970 nM
SMILES: COc1cc2c(cc1OC)C(=O)/C(=C/c1ccccc1F)C2 [Compound B3]

IC50 [3]: 20900 nM
SMILES: COc1cc2c(cc1OC)C(=O)/C(=C/c1ccc(F)cc1)C2 [Compound B1]

IC50 [3]: 12100 nM
SMILES: COc1cc2c(cc1OC)C(=O)/C(=C/c1ccccc1Cl)C2 [Compound B2]

IC50 [3]: 5500 nM
SMILES: COc1ccccc1/C=C1\Cc2cc(OC)c(OC)cc2C1=O [Compound B4]
